In patent US4898940A (priority 1989, dated 1990):
Values after ≈ are worked out from the molar mass of the structure shown.

Experiments:
Solubility in solvents = type: physicochemical
[1] = test system: Lymphocytic leukemia P388; experiment: Antitumor activity against P388 leukemia in mice; type: in vivo, CDF1 and BDF1 mice; details: for T/C % of MST: P388 leukemia; for antitumor activity against P388 leukemia (in words): ip
Protocol: (§1) Lymphocytic leukemia P388 (CDF1 and BDF1 mice) and lymphoid leukemia L1210 (BDF1 mice) were inoculated by intraperitoneal injection of 0.8 ml diluted ascitic fluid containing 10^6 and 10^5 cells per mouse, respectively. Melanotic melanoma B16 (BDF1 mice) were implanted 0.5 ml of a 10% tumor brei intraperitoneally. Test materials were dissolved in 0.9% saline containing 10% dimethyl sulfoxide and graded doses of them were administered to mice intraperitoneally 24 hours after tumor implantation. Either olivomycin (NSC 38270) or mitomycin C was comparatively tested as a reference compound in the experiments.
Values for percentage ratios of 125 and above indicate significant antitumor effect.

Piricularia oryzae = type: cell-based; details: Piricularia oryzae D 91; Sabouraud dextrose agar
Micrococcus luteus = experiment: MIC, serial agar dilution (nutrient agar); type: cell-based; details: Micrococcus luteus PCI-1001
Source text: (§2) Nutrient agar (Eiken) was used for bacteria and Sabouraud dextrose agar (Difco) for fungi. The inoculum size was adjusted to 10^4 CFU/ml for bacteria and 10^5 -10^7 CFU/ml for fungi.

Klebsiella pneumoniae = experiment: MIC, serial agar dilution (nutrient agar); type: cell-based; details: Klebsiella pneumoniae D-11
Source text: as §2

Streptococcus faecalis = experiment: MIC, serial agar dilution (nutrient agar); type: cell-based; details: Streptococcus faecalis A9612
Source text: as §2

Proteus mirabilis = experiment: MIC, serial agar dilution (nutrient agar); type: cell-based; details: Proteus mirabilis A9554
Source text: as §2

Escherichia coli = experiment: MIC, serial agar dilution (nutrient agar); type: cell-based; details: Escherichia coli NIHJ
Source text: as §2

[2] = test system: Staphylococcus epidermidis; experiment: MIC, serial agar dilution (nutrient agar); type: cell-based
Source text: as §2

Staphylococcus aureus = experiment: MIC, serial agar dilution (nutrient agar); type: cell-based
Source text: as §2

Enterobacter cloacae = experiment: MIC, serial agar dilution (nutrient agar); type: cell-based; details: Enterobacter cloacae A9659
Source text: as §2

Serratia marcescens = experiment: MIC, serial agar dilution (nutrient agar); type: cell-based; details: Serratia marcescens A20222
Source text: as §2

Pseudomonas aeruginosa = experiment: MIC, serial agar dilution (nutrient agar); type: cell-based; details: Pseudomonas aeruginosa A9930
Source text: as §2

Bacillus subtilis = experiment: MIC, serial agar dilution (nutrient agar); type: cell-based; details: Bacillus subtilis PCI-219
Source text: as §2

Proteus vulgaris = experiment: MIC, serial agar dilution (nutrient agar); type: cell-based; details: Proteus vulgaris A9436
Source text: as §2

Morganella morganii = experiment: MIC, serial agar dilution (nutrient agar); type: cell-based; details: Morganella morganii A9553
Source text: as §2

[3] = test system: pathogenic fungi such as Candida albicans, Cryptococcus neoformans, Aspergillus fumigatus, Trichlophyton mentagrophytes and Mucor spinosus; experiment: In vitro antifungal activity; type: cell-based; details: clinically important pathogenic fungi
Source text: as §2

[4] = test system: gram-positive and gram-negative bacteria; experiment: In vitro antibacterial activity; type: cell-based
Source text: as §2

Aspergillus flavus = experiment: MIC, serial agar dilution (Sabouraud dextrose agar); type: cell-based; details: Aspergillus flavus FA 21436
Source text: as §2

Blastomyces dermaditis = experiment: as above; type: cell-based; details: Blastomyces dermaditis IFO 8144
Source text: as §2

Fusarium moniliforme = experiment: as above; type: cell-based; details: Fusarium moniliforme A 2284
Source text: as §2

[5] = test system: Trichophyton mentagrophytes; experiment: as above; type: cell-based
Source text: as §2

Sporothrix schenckii = experiment: as above; type: cell-based; details: Sporothrix schenckii IFO 8158
Source text: as §2

Mucor spinosus = experiment: as above; type: cell-based; details: Mucor spinosus IFO 5317
Source text: as §2

Candida albicans = experiment: as above; type: cell-based
Source text: as §2

Aspergillus fumigatus = experiment: as above; type: cell-based
Source text: as §2

Cryptococcus neoformans = experiment: as above; type: cell-based
Source text: as §2

Petriellidium boydii = experiment: as above; type: cell-based; details: Petriellidium boydii IFO 8073
Source text: as §2

[6] = Acute toxicity, single intraperitoneal administration; details: male ddY mice
lymphoid leukemia L1210 = experiment: Antitumor activity against L1210 leukemia in mice; type: in vivo, BDF1 mice; details: L1210 leukemia, BDF1 mice
Protocol: as §1

Melanotic melanoma B16 = experiment: Antitumor activity against B16 melanoma in mice; type: in vivo, BDF1 mice; details: B16 melanoma, BDF1 mice
Protocol: as §1

[7] = 0.3 mg/kg/day ip, schedule 1 (once daily on days 1, 4 and 7)
[8] = 3 mg/kg/day ip, schedule 1 (once daily on days 1, 4 and 7)
[9] = treatment schedule 1 (once daily on days 1, 4 and 7)
[10] = Staphylococcus epidermidis A22152
[11] = Staphylococcus epidermidis D153
[12] = Trichophyton mentagrophytes #4329
[13] = Trichophyton mentagrophytes D 155
[14] = Cryptococcus neoformans IAM 4514
[15] = 0.031 mg/kg/day ip, schedule 2 (once daily on days 1 through 9)
[16] = 0.063 mg/kg/day ip, schedule 2 (once daily on days 1 through 9)
[17] = 0.13 mg/kg/day ip, schedule 2 (once daily on days 1 through 9)
[18] = 0.25 mg/kg/day ip, schedule 2 (once daily on days 1 through 9)
[19] = 0.5 mg/kg/day ip, schedule 2 (once daily on days 1 through 9)
[20] = 1 mg/kg/day ip, schedule 2 (once daily on days 1 through 9)

CCCCCC=CCCC=CC=CC(=O)NC(C(=O)NC1CC(O)CCNC(=O)C=CC(C)NC1=O)C(C)O (stereo not drawn) [BU-2867T B]
solubility in chloroform, acetonitrile and ethyl acetate (Solubility in solvents): slightly soluble | solubility in methanol, ethanol, n-butanol and dimethyl sulfoxide (Solubility in solvents): readily soluble | solubility in n-hexane and water (Solubility in solvents): practically insoluble | T/C % of MST [1, 7]: 120% | T/C % of MST ([1]; 1 mg/kg/day ip, schedule 1 (once daily on days 1, 4 and 7)): 140% | T/C % of MST [1, 8]: 165% | antitumor activity against P388 leukemia (in words) [1, 9]: showed antitumor activity | MIC (Piricularia oryzae): > 50 µg/mL | MIC (Micrococcus luteus): 50 µg/mL (≈ 91.5 µM) | MIC (Klebsiella pneumoniae): > 50 µg/mL | MIC (Streptococcus faecalis): > 50 µg/mL | MIC (Proteus mirabilis): > 50 µg/mL | MIC (Escherichia coli): > 50 µg/mL | MIC [2, 10]: 50 µg/mL (≈ 91.5 µM) | MIC [2, 11]: 6.3 µg/mL (≈ 11.5 µM) | MIC (Staphylococcus aureus; Staphyloccus aureus Bx-1633): 50 µg/mL (≈ 91.5 µM) | MIC (Staphylococcus aureus; Staphylococcus aureus 209P): 25 µg/mL (≈ 45.7 µM) | MIC (Staphylococcus aureus; Staphylococcus aureus Smith): 3.1 µg/mL (≈ 5.67 µM) | MIC (Enterobacter cloacae): > 50 µg/mL | MIC (Serratia marcescens): > 50 µg/mL | MIC (Pseudomonas aeruginosa): > 50 µg/mL | MIC (Bacillus subtilis): 50 µg/mL (≈ 91.5 µM) | MIC (Proteus vulgaris): > 50 µg/mL | MIC (Morganella morganii): > 50 µg/mL | antifungal activity (in words) [3]: somewhat less active than component C | activity against some gram-positive bacteria (in words) [4]: moderate activity | MIC (Aspergillus flavus): 25 µg/mL (≈ 45.7 µM) | MIC (Blastomyces dermaditis): 50 µg/mL (≈ 91.5 µM) | MIC (Fusarium moniliforme): > 50 µg/mL | MIC [5, 12]: 12.5 µg/mL (≈ 22.9 µM) | MIC [5, 13]: 12.5 µg/mL (≈ 22.9 µM) | MIC (Sporothrix schenckii): > 50 µg/mL | MIC (Mucor spinosus): 0.8 µg/mL (≈ 1.46 µM) | MIC (Candida albicans; Candida albicans A 9540): 1.6 µg/mL (≈ 2.93 µM) | MIC (Candida albicans; Candida albicans IAM 4888): 3.1 µg/mL (≈ 5.67 µM) | MIC (Aspergillus fumigatus; Aspergillus fumigatus IAM 2034): 3.1 µg/mL (≈ 5.67 µM) | MIC (Aspergillus fumigatus; Aspergillus fumigatus IAM 2530): 31 µg/mL (≈ 56.7 µM) | MIC (Cryptococcus neoformans; Cryptococcus neoformans D 49): 25 µg/mL (≈ 45.7 µM) | MIC (Cryptococcus neoformans; [14]): 25 µg/mL (≈ 45.7 µM) | MIC (Petriellidium boydii): > 50 µg/mL

CCCCCCCCCC=CC=CC(=O)NC(C(=O)NC1CC(O)CCNC(=O)C=CC(C)NC1=O)C(C)O (stereo not drawn) [BU-2867T C]
solubility in chloroform, acetonitrile and ethyl acetate (Solubility in solvents): slightly soluble | solubility in methanol, ethanol, n-butanol and dimethyl sulfoxide (Solubility in solvents): readily soluble | solubility in n-hexane and water (Solubility in solvents): practically insoluble | T/C % of MST [1, 15]: 100% | T/C % of MST [1, 16]: 123% | T/C % of MST [1, 17]: 153% | T/C % of MST [1, 18]: 159% | T/C % of MST [1, 7]: 130% | T/C % of MST [1, 19]: 175% | T/C % of MST [1, 20]: 189% | T/C % of MST ([1]; 2 mg/kg/day ip, schedule 2 (once daily on days 1 through 9)): 234% | T/C % of MST [1, 8]: 155% | antitumor activity against P388 leukemia (in words) [1, 9]: showed antitumor activity | antitumor activity against P388 leukemia (in words) ([1]; treatment schedule 2 (once daily on days 1 through 9)): highly active | MIC (Piricularia oryzae): > 50 µg/mL | MIC (Micrococcus luteus): > 50 µg/mL | MIC (Klebsiella pneumoniae): > 50 µg/mL | MIC (Streptococcus faecalis): > 50 µg/mL | MIC (Proteus mirabilis): > 50 µg/mL | MIC (Escherichia coli): > 50 µg/mL | MIC [2, 10]: > 50 µg/mL | MIC [2, 11]: > 50 µg/mL | MIC (Staphylococcus aureus; Staphyloccus aureus Bx-1633): > 50 µg/mL | MIC (Staphylococcus aureus; Staphylococcus aureus 209P): > 50 µg/mL | MIC (Staphylococcus aureus; Staphylococcus aureus Smith): > 50 µg/mL | MIC (Enterobacter cloacae): > 50 µg/mL | MIC (Serratia marcescens): > 50 µg/mL | MIC (Pseudomonas aeruginosa): > 50 µg/mL | MIC (Bacillus subtilis): > 50 µg/mL | MIC (Proteus vulgaris): > 50 µg/mL | MIC (Morganella morganii): > 50 µg/mL | LD50 [6]: 25 mg/kg | antifungal activity (in words) [3]: potent antifungal activity | growth inhibition of gram-positive and gram-negative bacteria (in words) ([4]; at 50 mcg/ml): did not inhibit the growth | MIC (Aspergillus flavus): 50 µg/mL (≈ 91.1 µM) | MIC (Blastomyces dermaditis): > 50 µg/mL | MIC (Fusarium moniliforme): > 50 µg/mL | MIC [5, 12]: 6.3 µg/mL (≈ 11.5 µM) | MIC [5, 13]: 1.6 µg/mL (≈ 2.92 µM) | MIC (Sporothrix schenckii): > 50 µg/mL | MIC (Mucor spinosus): 0.2 µg/mL (≈ 0.364 µM) | MIC (Candida albicans; Candida albicans A 9540): 0.8 µg/mL (≈ 1.46 µM) | MIC (Candida albicans; Candida albicans IAM 4888): 1.6 µg/mL (≈ 2.92 µM) | MIC (Aspergillus fumigatus; Aspergillus fumigatus IAM 2034): 0.8 µg/mL (≈ 1.46 µM) | MIC (Aspergillus fumigatus; Aspergillus fumigatus IAM 2530): 0.8 µg/mL (≈ 1.46 µM) | MIC (Cryptococcus neoformans; Cryptococcus neoformans D 49): 3.1 µg/mL (≈ 5.65 µM) | MIC (Cryptococcus neoformans; [14]): 3.1 µg/mL (≈ 5.65 µM) | MIC (Petriellidium boydii): 50 µg/mL (≈ 91.1 µM)

CO[C@@]12[C@H](COC(N)=O)C3=C(C(=O)C(C)=C(N)C3=O)N1C[C@@H]1N[C@@H]12 [Mitomycin C, reference compound]
T/C % of MST [1, 15]: 115% | T/C % of MST [1, 16]: 130% | T/C % of MST [1, 17]: 150% | T/C % of MST [1, 18]: 170% | T/C % of MST [1, 19]: 240% | T/C % of MST [1, 20]: 290% | T/C % of MST (lymphoid leukemia L1210; 0.063 mg/kg/day ip): 106% | T/C % of MST (lymphoid leukemia L1210; 0.13 mg/kg/day ip): 129% | T/C % of MST (lymphoid leukemia L1210; 0.25 mg/kg/day ip): 129% | T/C % of MST (lymphoid leukemia L1210; 0.5 mg/kg/day ip): 141% | T/C % of MST (lymphoid leukemia L1210; 1 mg/kg/day ip): 140% | T/C % of MST (Melanotic melanoma B16; 0.13 mg/kg/day ip): 131% | T/C % of MST (Melanotic melanoma B16; 0.25 mg/kg/day ip): 141% | T/C % of MST (Melanotic melanoma B16; 0.5 mg/kg/day ip): 163% | T/C % of MST (Melanotic melanoma B16; 1 mg/kg/day ip): 181% | T/C % of MST (Melanotic melanoma B16; 2 mg/kg/day ip): 63%

Olivomycin A [reference compound]
T/C % of MST [1, 7]: 100%
